Data as given in ChEMBL document CHEMBL1125981, “Enantioselective total synthesis and pharmacologic profile of 12-deoxy-12(S)-methyl leukotriene B4” (Bioorg Med Chem Lett, 1991).

Assays:
[1] = species: Homo sapiens; experiment: Compound was tested for its ability to inhibit human neutrophil degranulation induced by LTB4; type: functional
[2] = target: Leukotriene B4 receptor 1 (Homo sapiens, UniProt Q15722); experiment: Compound was tested for its antagonist activity in a LTB4 human neutrophil receptor binding assay using the natural ligand itself
Chain of Leukotriene B4 receptor 1 (Q15722 whole entry): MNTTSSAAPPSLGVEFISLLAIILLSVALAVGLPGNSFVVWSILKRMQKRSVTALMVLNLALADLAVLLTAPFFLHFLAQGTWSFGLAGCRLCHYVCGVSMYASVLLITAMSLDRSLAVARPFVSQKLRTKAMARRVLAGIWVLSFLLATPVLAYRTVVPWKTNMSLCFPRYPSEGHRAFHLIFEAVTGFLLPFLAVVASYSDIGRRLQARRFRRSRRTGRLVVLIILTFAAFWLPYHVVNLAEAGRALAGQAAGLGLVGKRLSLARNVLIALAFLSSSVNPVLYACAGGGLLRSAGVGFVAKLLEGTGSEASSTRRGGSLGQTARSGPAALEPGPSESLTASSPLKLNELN

- IC50 [1]: 3.4 µM
- IC50 [2]: 3.8 µM
Compound: CCCCC/C=C\C[C@@H](C)/C=C/C=C/C=C/[C@@H](O)CCCC(=O)O
